ChEMBL document CHEMBL4680185, “Discovery of novel cyclin-dependent kinase (CDK) and histone deacetylase (HDAC) dual inhibitors with potent in vitro and in vivo anticancer activity” (Eur J Med Chem, 2020)

system: HCT-116; experiment: cells; type: functional; settings: Homo sapiens, time 72 hrs, read-out: GI

Row | Structure (SMILES) | inhibition of growth at 8 µM [%]
1 | O=C(NO)c1ccc(CNC(=O)c2n[nH]cc2NC(=O)c2ccccc2Cl)cc1 | 71.6
2 | O=C(Cc1ccc(NC(=O)c2n[nH]cc2NC(=O)c2c(F)cccc2Cl)cc1)NO | 44.9
3 | O=C(CCCCCCNC(=O)c1n[nH]cc1NC(=O)c1c(F)cccc1F)NO | 13.8
4 | O=C(NO)c1ccc(CNC(=O)c2n[nH]cc2NC(=O)c2c(F)cccc2F)cc1 | 64.5
5 | O=C(CCCCCNC(=O)c1n[nH]cc1NC(=O)c1c(Cl)cccc1Cl)NO | 4.66
6 | O=C(NO)c1ccc(CNC(=O)c2n[nH]cc2NC(=O)c2c(Cl)cccc2Cl)cc1 | 81.9
7 | COc1ccccc1C(=O)Nc1c[nH]nc1C(=O)NCc1ccc(C(=O)Nc2ccccc2N)cc1 | 75.4
8 | Nc1ccccc1NC(=O)Cc1ccc(NC(=O)c2n[nH]cc2NC(=O)c2ccccc2Cl)cc1 | 52
9 | Nc1ccccc1NC(=O)Cc1ccc(NC(=O)c2n[nH]cc2NC(=O)c2ccccc2F)cc1 | 20.4
10 | Nc1ccccc1NC(=O)c1ccc(CNC(=O)c2n[nH]cc2NC(=O)c2ccccc2)cc1 | 88.6
11 | O=C(Cc1ccc(NC(=O)c2n[nH]cc2NC(=O)c2c(F)cccc2F)cc1)NO | 25.6
12 | O=C(NO)c1ccc(CNC(=O)c2n[nH]cc2NC(=O)c2ccccc2F)cc1 | 77
13 | Nc1ccccc1NC(=O)c1ccc(CNC(=O)c2n[nH]cc2NC(=O)c2c(F)cccc2F)cc1 | 79.1
14 | Nc1ccccc1NC(=O)c1ccc(CNC(=O)c2n[nH]cc2NC(=O)c2c(F)cccc2Cl)cc1 | 83.8

system: NCI-H460; experiment: cells; type: functional; settings: Homo sapiens, time 72 hrs, read-out: GI

Row | Structure (SMILES) | inhibition of growth at 8 µM [%]
15 | O=C(NO)c1ccc(CNC(=O)c2n[nH]cc2NC(=O)c2ccccc2Cl)cc1 | 29.8
16 | O=C(Cc1ccc(NC(=O)c2n[nH]cc2NC(=O)c2c(F)cccc2Cl)cc1)NO | 37
17 | O=C(CCCCCCNC(=O)c1n[nH]cc1NC(=O)c1c(F)cccc1F)NO | 6.84
18 | O=C(NO)c1ccc(CNC(=O)c2n[nH]cc2NC(=O)c2c(F)cccc2F)cc1 | 7.33
19 | O=C(CCCCCNC(=O)c1n[nH]cc1NC(=O)c1c(Cl)cccc1Cl)NO | 21.3
20 | O=C(NO)c1ccc(CNC(=O)c2n[nH]cc2NC(=O)c2c(Cl)cccc2Cl)cc1 | 57.4
21 | COc1ccccc1C(=O)Nc1c[nH]nc1C(=O)NCc1ccc(C(=O)Nc2ccccc2N)cc1 | 45.5
22 | Nc1ccccc1NC(=O)Cc1ccc(NC(=O)c2n[nH]cc2NC(=O)c2ccccc2Cl)cc1 | 27.8
23 | Nc1ccccc1NC(=O)Cc1ccc(NC(=O)c2n[nH]cc2NC(=O)c2ccccc2F)cc1 | 23.4
24 | Nc1ccccc1NC(=O)c1ccc(CNC(=O)c2n[nH]cc2NC(=O)c2ccccc2)cc1 | 61.7
25 | O=C(Cc1ccc(NC(=O)c2n[nH]cc2NC(=O)c2c(F)cccc2F)cc1)NO | 30.2
26 | O=C(NO)c1ccc(CNC(=O)c2n[nH]cc2NC(=O)c2ccccc2F)cc1 | 57.1
27 | Nc1ccccc1NC(=O)c1ccc(CNC(=O)c2n[nH]cc2NC(=O)c2c(F)cccc2F)cc1 | 80.5
28 | Nc1ccccc1NC(=O)c1ccc(CNC(=O)c2n[nH]cc2NC(=O)c2c(F)cccc2Cl)cc1 | 75

system: HCT-116; experiment: cells; type: functional, cell-based; settings: Homo sapiens, HCT-116, 72 h
Description: Antiproliferative activity against human HCT116 cells assessed as inhibition of cell growth incubated for 72 hrs by CCK-8 assay

Row | Structure (SMILES) | IC50 [µM]
29 | O=C(NO)c1ccc(CNC(=O)c2n[nH]cc2NC(=O)c2ccccc2Cl)cc1 | 2.4
30 | O=C(NO)c1ccc(CNC(=O)c2n[nH]cc2NC(=O)c2c(Cl)cccc2Cl)cc1 | 0.5
31 | COc1ccccc1C(=O)Nc1c[nH]nc1C(=O)NCc1ccc(C(=O)Nc2ccccc2N)cc1 | 3.68
32 | Nc1ccccc1NC(=O)c1ccc(CNC(=O)c2n[nH]cc2NC(=O)c2ccccc2)cc1 | 1.66
33 | O=C(NO)c1ccc(CNC(=O)c2n[nH]cc2NC(=O)c2ccccc2F)cc1 | 2.2
34 | Nc1ccccc1NC(=O)c1ccc(CNC(=O)c2n[nH]cc2NC(=O)c2c(F)cccc2F)cc1 | 1.13
35 | Nc1ccccc1NC(=O)c1ccc(CNC(=O)c2n[nH]cc2NC(=O)c2c(F)cccc2Cl)cc1 | 0.7

system: NCI-H460; experiment: cells; type: functional, cell-based; settings: Homo sapiens, NCI-H460, 72 h
Description: Antiproliferative activity against human H460 cells assessed as inhibition of cell growth incubated for 72 hrs by CCK-8 assay

Row | Structure (SMILES) | IC50 [µM]
36 | O=C(NO)c1ccc(CNC(=O)c2n[nH]cc2NC(=O)c2ccccc2Cl)cc1 | 6.17
37 | O=C(NO)c1ccc(CNC(=O)c2n[nH]cc2NC(=O)c2c(Cl)cccc2Cl)cc1 | 10.6
38 | COc1ccccc1C(=O)Nc1c[nH]nc1C(=O)NCc1ccc(C(=O)Nc2ccccc2N)cc1 | 7.35
39 | Nc1ccccc1NC(=O)c1ccc(CNC(=O)c2n[nH]cc2NC(=O)c2ccccc2)cc1 | 6.32
40 | O=C(NO)c1ccc(CNC(=O)c2n[nH]cc2NC(=O)c2ccccc2F)cc1 | 23.7
41 | Nc1ccccc1NC(=O)c1ccc(CNC(=O)c2n[nH]cc2NC(=O)c2c(F)cccc2F)cc1 | 7.79
42 | Nc1ccccc1NC(=O)c1ccc(CNC(=O)c2n[nH]cc2NC(=O)c2c(F)cccc2Cl)cc1 | 3.63

system: A-375; experiment: cells; type: functional, cell-based; settings: Homo sapiens, A-375, 72 h
Description: Antiproliferative activity against human A375 cells assessed as inhibition of cell growth incubated for 72 hrs by CCK-8 assay

Row | Structure (SMILES) | IC50 [µM]
43 | O=C(NO)c1ccc(CNC(=O)c2n[nH]cc2NC(=O)c2ccccc2Cl)cc1 | 6.42
44 | O=C(NO)c1ccc(CNC(=O)c2n[nH]cc2NC(=O)c2c(Cl)cccc2Cl)cc1 | 5.05
45 | COc1ccccc1C(=O)Nc1c[nH]nc1C(=O)NCc1ccc(C(=O)Nc2ccccc2N)cc1 | 2.66
46 | Nc1ccccc1NC(=O)c1ccc(CNC(=O)c2n[nH]cc2NC(=O)c2ccccc2)cc1 | 1.59
47 | O=C(NO)c1ccc(CNC(=O)c2n[nH]cc2NC(=O)c2ccccc2F)cc1 | 3.01
48 | Nc1ccccc1NC(=O)c1ccc(CNC(=O)c2n[nH]cc2NC(=O)c2c(F)cccc2F)cc1 | 1.7
49 | Nc1ccccc1NC(=O)c1ccc(CNC(=O)c2n[nH]cc2NC(=O)c2c(F)cccc2Cl)cc1 | 1.2

system: HeLa; experiment: cells; type: functional, cell-based; settings: Homo sapiens, 72 h
Description: Antiproliferative activity against human Hela cells assessed as inhibition of cell growth incubated for 72 hrs by CCK-8 assay

Row | Structure (SMILES) | IC50 [µM]
50 | O=C(NO)c1ccc(CNC(=O)c2n[nH]cc2NC(=O)c2ccccc2Cl)cc1 | 16.2
51 | O=C(NO)c1ccc(CNC(=O)c2n[nH]cc2NC(=O)c2c(Cl)cccc2Cl)cc1 | 4.84
52 | COc1ccccc1C(=O)Nc1c[nH]nc1C(=O)NCc1ccc(C(=O)Nc2ccccc2N)cc1 | 8.13
53 | Nc1ccccc1NC(=O)c1ccc(CNC(=O)c2n[nH]cc2NC(=O)c2ccccc2)cc1 | 4.06
54 | O=C(NO)c1ccc(CNC(=O)c2n[nH]cc2NC(=O)c2ccccc2F)cc1 | 6.61
55 | Nc1ccccc1NC(=O)c1ccc(CNC(=O)c2n[nH]cc2NC(=O)c2c(F)cccc2F)cc1 | 4.48
56 | Nc1ccccc1NC(=O)c1ccc(CNC(=O)c2n[nH]cc2NC(=O)c2c(F)cccc2Cl)cc1 | 3.27

system: SMMC-7721; experiment: cells; type: functional, cell-based; settings: Homo sapiens, SMMC-7721, 72 h
Description: Antiproliferative activity against human SMMC7721 cells assessed as inhibition of cell growth incubated for 72 hrs by CCK-8 assay

Row | Structure (SMILES) | IC50 [µM]
57 | O=C(NO)c1ccc(CNC(=O)c2n[nH]cc2NC(=O)c2ccccc2Cl)cc1 | 21.8
58 | O=C(NO)c1ccc(CNC(=O)c2n[nH]cc2NC(=O)c2c(Cl)cccc2Cl)cc1 | 14.6
59 | COc1ccccc1C(=O)Nc1c[nH]nc1C(=O)NCc1ccc(C(=O)Nc2ccccc2N)cc1 | 8.32
60 | Nc1ccccc1NC(=O)c1ccc(CNC(=O)c2n[nH]cc2NC(=O)c2ccccc2)cc1 | 6.62
61 | O=C(NO)c1ccc(CNC(=O)c2n[nH]cc2NC(=O)c2ccccc2F)cc1 | 16.7
62 | Nc1ccccc1NC(=O)c1ccc(CNC(=O)c2n[nH]cc2NC(=O)c2c(F)cccc2F)cc1 | 15.2
63 | Nc1ccccc1NC(=O)c1ccc(CNC(=O)c2n[nH]cc2NC(=O)c2c(F)cccc2Cl)cc1 | 16.3

system: HCT-116; experiment: cells; type: functional; settings: Homo sapiens, time 72 hrs, read-out: GI; remark: another data set of the same source

Row | Structure (SMILES) | inhibition of growth at 2 µM [%]
64 | O=C(NO)c1ccc(CNC(=O)c2n[nH]cc2NC(=O)c2ccccc2Cl)cc1 | 53.8
65 | O=C(Cc1ccc(NC(=O)c2n[nH]cc2NC(=O)c2c(F)cccc2Cl)cc1)NO | 21.7
66 | O=C(CCCCCCNC(=O)c1n[nH]cc1NC(=O)c1c(F)cccc1F)NO | 12.1
67 | O=C(NO)c1ccc(CNC(=O)c2n[nH]cc2NC(=O)c2c(F)cccc2F)cc1 | 25
68 | O=C(CCCCCNC(=O)c1n[nH]cc1NC(=O)c1c(Cl)cccc1Cl)NO | 3.02
69 | O=C(NO)c1ccc(CNC(=O)c2n[nH]cc2NC(=O)c2c(Cl)cccc2Cl)cc1 | 68.7
70 | COc1ccccc1C(=O)Nc1c[nH]nc1C(=O)NCc1ccc(C(=O)Nc2ccccc2N)cc1 | 23.5
71 | Nc1ccccc1NC(=O)Cc1ccc(NC(=O)c2n[nH]cc2NC(=O)c2ccccc2Cl)cc1 | 29.2
72 | Nc1ccccc1NC(=O)Cc1ccc(NC(=O)c2n[nH]cc2NC(=O)c2ccccc2F)cc1 | 16.5
73 | Nc1ccccc1NC(=O)c1ccc(CNC(=O)c2n[nH]cc2NC(=O)c2ccccc2)cc1 | 62.9
74 | O=C(Cc1ccc(NC(=O)c2n[nH]cc2NC(=O)c2c(F)cccc2F)cc1)NO | 29.9
75 | O=C(NO)c1ccc(CNC(=O)c2n[nH]cc2NC(=O)c2ccccc2F)cc1 | 51
76 | Nc1ccccc1NC(=O)c1ccc(CNC(=O)c2n[nH]cc2NC(=O)c2c(F)cccc2F)cc1 | 73.1
77 | Nc1ccccc1NC(=O)c1ccc(CNC(=O)c2n[nH]cc2NC(=O)c2c(F)cccc2Cl)cc1 | 78.7

system: NCI-H460; experiment: cells; type: functional; settings: Homo sapiens, time 72 hrs, read-out: GI; remark: another data set of the same source

Row | Structure (SMILES) | inhibition of growth at 2 µM [%]
78 | O=C(NO)c1ccc(CNC(=O)c2n[nH]cc2NC(=O)c2ccccc2Cl)cc1 | 26.6
79 | O=C(Cc1ccc(NC(=O)c2n[nH]cc2NC(=O)c2c(F)cccc2Cl)cc1)NO | 12.5
80 | O=C(CCCCCCNC(=O)c1n[nH]cc1NC(=O)c1c(F)cccc1F)NO | 3.57
81 | O=C(NO)c1ccc(CNC(=O)c2n[nH]cc2NC(=O)c2c(F)cccc2F)cc1 | 0.46
82 | O=C(CCCCCNC(=O)c1n[nH]cc1NC(=O)c1c(Cl)cccc1Cl)NO | 15.1
83 | O=C(NO)c1ccc(CNC(=O)c2n[nH]cc2NC(=O)c2c(Cl)cccc2Cl)cc1 | 45.4
84 | COc1ccccc1C(=O)Nc1c[nH]nc1C(=O)NCc1ccc(C(=O)Nc2ccccc2N)cc1 | 5.73
85 | Nc1ccccc1NC(=O)Cc1ccc(NC(=O)c2n[nH]cc2NC(=O)c2ccccc2Cl)cc1 | 3.08
86 | Nc1ccccc1NC(=O)Cc1ccc(NC(=O)c2n[nH]cc2NC(=O)c2ccccc2F)cc1 | 6.06
87 | Nc1ccccc1NC(=O)c1ccc(CNC(=O)c2n[nH]cc2NC(=O)c2ccccc2)cc1 | 11.8
88 | O=C(Cc1ccc(NC(=O)c2n[nH]cc2NC(=O)c2c(F)cccc2F)cc1)NO | 0.04
89 | O=C(NO)c1ccc(CNC(=O)c2n[nH]cc2NC(=O)c2ccccc2F)cc1 | 23.5
90 | Nc1ccccc1NC(=O)c1ccc(CNC(=O)c2n[nH]cc2NC(=O)c2c(F)cccc2F)cc1 | 13.9
91 | Nc1ccccc1NC(=O)c1ccc(CNC(=O)c2n[nH]cc2NC(=O)c2c(F)cccc2Cl)cc1 | 50.1
